The text below walks through data of patent US6004967A, “Psoriasis treatment with quinazoline compounds” (priority 1997, dated 1999).

In one data set the test system is C6. The experiment in a line: Cell growth (SRB), C6. It is filed as cell-based. On the procedure:
(§1) In vitro functional studies.
(§2) After 4 days, cell density was measured by SRB staining. IC50 values were determined by regression analysis. For these experiments, cell lines whose growth is dependent on naturally-expressed RTK were examined.

Data set [1] has as its system 3T3-EGFR cells. In words: EGF-driven DNA replication (BrdU incorporation). The conditions noted are these: Mus musculus, 20 hours. It counts as cell-based. On the procedure: (§3) In vitro functional studies. […] Cell lines examined in receptor phosphorylation ELISA were 3T3-EGFR, 3T3-EGFR/Her-2, 3T3-PDGF-bR, 3T3-IGF1R, and 3T3-IR. For analysis of DNA replication (measured as incorporation of BrdU) and cell cycle progression, 3T3-EGFR and 3T3-PDGF-bR cell lines were used. Cell growth studies were carried out on A431 (EGF-R+), BT474 (Her-2+), and C6 (PDGF-bR+) cell lines.
A general note: Dividing cells build labelled thymidine or BrdU into new DNA.

Data set [2] deals with psoriatic human keratinocytes. In words: Growth of psoriatic human keratinocytes. It is filed as cell-based.
Description: (§4) Cells and Cell Culture. All tumor cell lines were obtained from the American Type Culture Collection (Rockville, Md.), unless otherwise specified. NIH3T3 mouse fibroblasts overexpressing the EGF receptor, IGF-1 receptor, insulin receptor, PDGF-b receptor, or a chimera of the EGF receptor extracellular domain fused to the Her-2 cytoplasmic domain were engineered using retroviral vectors. These cells will be referred to as 3T3-EGFR, 3T3-IGF1R, 3T3-IR, 3T3-PDGF-bR, and 3T3-EGFR/Her-2, respectively. All cell culture media and supplements were purchased from Gibco Life Technologies (Grand Island, N.Y.) unless otherwise specified. […] Cell lines were maintained under standard conditions in culture media recommended by the ATCC, unless otherwise specified. 3T3-EGFR, 3T3-PDGF-bR, and 3T3-EGFR/Her-2 cells were maintained in DMEM containing 10% calf serum (CS) and 2 mM GLN. 3T3-IGF1R and 3T3-IR cells were maintained in DMEM containing 10% FBS and 2 mM GLN. Keratinocytes were obtained from small biopsy specimens of split-thicknessskin from patients with psoriasis and from healthy control donors.
as §3

Another data set can be described thus: in vitro. It counts as in vitro ADME, human. On the procedure:
. […] . Thus, biologically relevant concentrations of the drug penetrated the skin and reached the target tissue (epidermis) within 24 hours of application.
. The area of the cadaver skin used was 1.77 cm^2. The calculated volume using this assumption is 17.7 μL. Molar concentration was calculated from the microgram recovery in the epidermis.

The test system of a further data set is A431. In words: Cell growth (SRB), A431. It counts as cell-based. As to the method: as §3, §2
A further data set can be described thus: in vivo. The settings on record: mouse, in vivo.
Data set [3] has as its system 3T3-EGFR cells. In words: EGF-driven cell cycle progression (propidium iodide, FACS). It is filed as cell-based, mouse. The conditions noted are these: 20 hours. On the procedure: as §3
The test system of the next data set is BT474. The experiment in a line: Cell growth (SRB), BT474. It is filed as cell-based. The settings on record: Homo sapiens, BT-474, 96 h; RTK Her-2, 4 day incubation. As to the method:
as §1, §2

Data set [4] relates to NIH 3T3 C7 cells engineered to express EGF-R (3T3-EGFR). In words: 3T3 cell growth assay, EGF-R C7 cells (3T3-EGFR). The conditions noted are these: Mus musculus, NIH3T3, 96 h, read-out: 3T3-EGFR IC50. It counts as cell-based. As to the method:
The efficacy of the above identified compounds in inhibiting or reducing EGF-R stimulated proliferation is measured by the 3T3 cell growth assay. The 3T3 growth assay was carried out as follows:
EGF-RC7 (NIH 3T3 C7 cells engineered to express EGF-R) and NIH 3T3C7 cells (as the control) were used for this assay. NIH3T3C7 cells were seeded at 2500 cells/well, […] in 10% CS+2 mM Glutamine/DMEM, in a 96 well plate; EGF-RC7 cells were seeded at 6000 cells/well, 100 μl/well in 2% FBS+2 mM Glutamine/DMEM, in a 96 well plate. Cells were incubated at 37° C., 5% CO2 overnight to allow for cell attachment to the plate.
A quinazoline compound was added to the cells at day 2. The compound was prepared in the appropriate growth medium (10% CS+2 mM glutamine in DMEM for NIH3T3C7 cells; 2% FBS+2 mM Glutamine in DMEM for EGF-RC7 cells) in a 96 well plate, and serially diluted. A total of 100 μl/well medium of the diluted compounds was added into the cells. The total volume of each well was 200 μl.
After the cells were treated with the compound for 4 days, the cells were washed with PBS and fixed with 200 μl/well ice-cold […] for one hour at 0-5° C.
Remove TCA and rinse wells 5 times with deionized water. Dry plates upside down with paper towels. Stain cells with 0.4% SRB at 100 μl/well for 10 minutes.
Pour off SRB and rinse plate 5 times with 1% acetic acid. Dry plate completely.
Solubilize the dye with 10 mM Tris-base at 100 μl/well for 10 minutes on a shaker.
Read the plate at dual wavelengths at 570 nm and 630 nm on Dynatech Elisa plate reader.

A further data set deals with T1, IGF-1R (Homo sapiens, UniProt P08069).
T1 construct: expressed in transfected cells; host or cells: NIH3T3 mouse fibroblasts, retroviral vector (3T3-IGF1R)
The experiment in a line: IGF-1-stimulated receptor phosphorylation ELISA, 3T3-IGF1R. It is filed as cell-based.
Description: as §4, §3
Receptor phosphorylation was measured by ELISA. EGF-R/Her-2 denotes a chimeric receptor consisting of the extracellular (ligand-binding) domain of EGFR, and the transmembrane and cytoplasmic domains of Her-2.

A further data set deals with T2, IR (Homo sapiens, UniProt P06213).
T2 construct: expressed in transfected cells; host or cells: NIH3T3 mouse fibroblasts, retroviral vector (3T3-IR)
The experiment in a line: Insulin-stimulated receptor phosphorylation ELISA, 3T3-IR. It is filed as cell-based.
Description: as §4
In vitro functional studies. […] For analysis of DNA replication (measured as incorporation of BrdU) and cell cycle progression, 3T3-EGFR and 3T3-PDGF-bR cell lines were used. […]
Receptor phosphorylation was measured by ELISA. […]

Structures are written as SMILES.

T1 sequence (P08069 741-1367 limits assumed, species assumed): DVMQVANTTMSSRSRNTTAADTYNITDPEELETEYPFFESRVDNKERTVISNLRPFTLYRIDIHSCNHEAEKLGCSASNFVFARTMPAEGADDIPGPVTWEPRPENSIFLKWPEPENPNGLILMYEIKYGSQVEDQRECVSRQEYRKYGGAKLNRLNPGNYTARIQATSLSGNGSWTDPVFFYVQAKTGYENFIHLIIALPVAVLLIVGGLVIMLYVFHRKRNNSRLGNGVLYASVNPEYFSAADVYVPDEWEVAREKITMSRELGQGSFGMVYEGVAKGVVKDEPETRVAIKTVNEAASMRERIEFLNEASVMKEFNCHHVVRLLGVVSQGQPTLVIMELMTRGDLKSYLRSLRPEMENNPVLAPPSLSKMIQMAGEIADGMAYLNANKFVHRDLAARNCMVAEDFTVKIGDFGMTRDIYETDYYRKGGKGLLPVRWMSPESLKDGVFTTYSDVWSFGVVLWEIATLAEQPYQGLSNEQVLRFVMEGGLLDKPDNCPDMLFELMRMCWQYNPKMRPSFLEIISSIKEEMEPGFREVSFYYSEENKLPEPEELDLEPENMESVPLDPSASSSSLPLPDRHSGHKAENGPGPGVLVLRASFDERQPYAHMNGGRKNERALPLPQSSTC
T1 sequence (P08069 31-736 partner limits assumed, species assumed): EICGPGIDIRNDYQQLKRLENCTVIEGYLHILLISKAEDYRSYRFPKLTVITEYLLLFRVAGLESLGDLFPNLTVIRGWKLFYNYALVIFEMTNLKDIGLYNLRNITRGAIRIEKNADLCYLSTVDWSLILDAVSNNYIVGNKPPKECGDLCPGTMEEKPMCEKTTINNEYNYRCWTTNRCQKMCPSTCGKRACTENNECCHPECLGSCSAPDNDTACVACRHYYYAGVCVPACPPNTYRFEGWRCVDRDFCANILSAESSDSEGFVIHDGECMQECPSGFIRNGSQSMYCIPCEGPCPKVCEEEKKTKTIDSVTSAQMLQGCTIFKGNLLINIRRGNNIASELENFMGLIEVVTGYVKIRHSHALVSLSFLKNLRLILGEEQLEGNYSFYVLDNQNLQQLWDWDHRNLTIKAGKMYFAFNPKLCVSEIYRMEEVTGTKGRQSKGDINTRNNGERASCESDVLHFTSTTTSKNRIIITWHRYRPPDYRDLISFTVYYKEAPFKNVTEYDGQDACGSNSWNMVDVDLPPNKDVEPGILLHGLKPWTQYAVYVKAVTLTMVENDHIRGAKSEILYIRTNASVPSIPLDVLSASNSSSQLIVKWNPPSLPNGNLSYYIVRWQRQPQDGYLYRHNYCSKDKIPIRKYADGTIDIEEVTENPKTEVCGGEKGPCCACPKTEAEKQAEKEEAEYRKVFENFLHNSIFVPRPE
T2 sequence (P06213 763-1382 limits assumed): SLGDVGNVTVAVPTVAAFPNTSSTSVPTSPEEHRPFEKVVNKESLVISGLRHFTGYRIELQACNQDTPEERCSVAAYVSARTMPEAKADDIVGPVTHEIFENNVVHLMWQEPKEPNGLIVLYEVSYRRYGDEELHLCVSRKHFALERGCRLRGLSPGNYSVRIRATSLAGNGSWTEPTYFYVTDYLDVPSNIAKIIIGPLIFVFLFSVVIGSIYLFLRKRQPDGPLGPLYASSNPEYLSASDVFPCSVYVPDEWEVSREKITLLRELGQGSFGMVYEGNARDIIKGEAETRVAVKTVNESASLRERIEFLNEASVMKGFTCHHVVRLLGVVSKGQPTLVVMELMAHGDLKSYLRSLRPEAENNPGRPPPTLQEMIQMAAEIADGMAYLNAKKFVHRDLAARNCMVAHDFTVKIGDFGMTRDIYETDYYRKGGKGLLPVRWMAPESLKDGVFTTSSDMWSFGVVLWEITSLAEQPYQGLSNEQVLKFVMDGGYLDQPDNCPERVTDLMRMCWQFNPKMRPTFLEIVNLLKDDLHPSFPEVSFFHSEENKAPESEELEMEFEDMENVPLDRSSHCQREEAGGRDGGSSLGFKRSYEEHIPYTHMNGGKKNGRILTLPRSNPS
T2 sequence (P06213 28-758 partner limits assumed): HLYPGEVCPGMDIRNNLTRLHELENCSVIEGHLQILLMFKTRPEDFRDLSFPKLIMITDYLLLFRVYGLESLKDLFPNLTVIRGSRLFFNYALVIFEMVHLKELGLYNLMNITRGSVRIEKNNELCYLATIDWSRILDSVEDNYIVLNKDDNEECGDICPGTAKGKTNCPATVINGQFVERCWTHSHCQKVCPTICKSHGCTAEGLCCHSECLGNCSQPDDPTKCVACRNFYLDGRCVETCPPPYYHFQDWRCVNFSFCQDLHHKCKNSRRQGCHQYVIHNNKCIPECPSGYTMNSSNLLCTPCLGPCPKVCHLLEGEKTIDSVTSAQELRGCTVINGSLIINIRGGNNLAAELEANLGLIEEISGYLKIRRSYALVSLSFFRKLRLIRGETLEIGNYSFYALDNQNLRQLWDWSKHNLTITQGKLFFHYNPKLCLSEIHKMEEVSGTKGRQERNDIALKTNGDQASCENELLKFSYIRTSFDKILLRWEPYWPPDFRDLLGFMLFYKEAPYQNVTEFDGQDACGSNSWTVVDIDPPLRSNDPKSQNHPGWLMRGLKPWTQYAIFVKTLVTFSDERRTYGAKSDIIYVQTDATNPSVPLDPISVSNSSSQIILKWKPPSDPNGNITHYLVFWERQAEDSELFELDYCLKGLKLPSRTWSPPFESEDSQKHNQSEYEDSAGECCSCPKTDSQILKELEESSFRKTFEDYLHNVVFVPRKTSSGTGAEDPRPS

Broadly, the IC50 is the point on the concentration scale where inhibition reaches its midpoint. Take `COc1cc2ncnc(Nc3cccc(Br)c3)c2cc1OC` [A1, 4-(3-Bromophenylamino)-6,7-dimethoxyquinazoline]: the “inhibition of PDGF-bR-dependent cell growth (in words)” value in the data set on C6 is listed as “did not inhibit”. The IC50 in the data set with C6 (Rattus norvegicus, C6, 96 h, RTK PDGF-bR, 4 day incubation) is greater than 100000 nM; with 3T3-EGFR cells [1], 30 nM; in data set [2] (Homo sapiens, Keratinocyte, read-out: IC50, growth of psoriatic keratinocytes), less than 1000 nM; with A431 (Homo sapiens, A-431, 96 h), 1600 nM; with 3T3-EGFR cells [3], 34 nM; in the data set on BT474, 900 nM. For the same compound, the IC50 in [4] was 75 nM; on IGF-1R (ligand IGF-1, 2 hr pretreatment) it was greater than 100000 nM; on IR (ligand Insulin, 2 hr pretreatment) it was greater than 100000 nM. For the same compound, the “inhibition of psoriatic skin cell / keratinocyte proliferation in vitro (in words)” value in data set [2] is reported as “capable of inhibiting”. Also, the IC99 in data set [2] (Homo sapiens, Keratinocyte, 120 h, read-out: IC99, inhibition of psoriatic keratinocyte proliferation) was roughly 14 µM. For the same compound, the “skin penetration (in words)” value in the data set “in vitro” is given as “penetrated human cadaver skin, reaching biologically effective concentrations in the epidermis”. This compound yielded a concentration at 24 h in the data set “in vitro” (human, topical or ocular, concentration in the epidermis after 24 hours) of 141 to 355 µM. In addition, the “growth of cell lines driven by the EGF-R/Her family of RTK (in words)” value with A431 is “preferentially inhibited”. In the data set “in vivo”, the “toxicity (in words)” value was “low toxicity”. Moreover, the “activity against insulin-like growth factor-1 receptor (in words)” value on IGF-1R is “little or no activity”. The “inhibition of receptor phosphorylation, IGF-1R” value against IGF-1R (concentrations up to 100 μM) was “not inhibited”. The “inhibition of receptor phosphorylation, IR” value on IR (concentrations up to 100 μM) is listed as “not inhibited”.
